Patent publication US20210246115A1 (Bioimics AB, priority 2017, published 2021)
Where a name gives a salt, the structure may show the parent alone. Read-outs that look alike come from different tables or passages of the source.

Tests used:
[1] = test system: E. coli RNase P RNA, M1 RNA; experiment: Initial screening for inhibition of RNase P activity (normalised cleavage of pATSerUG at maximum compound concentration); assay type: biochemical; conditions: normalised cleavage (cleavage with compound / without compound) at maximum compound concentration
[2] = test system: Staphylococcus aureus (ATCC25923); experiment: MIC, broth microdilution (CLSI), Staphylococcus aureus ATCC25923; conditions: Staphylococcus aureus, ATCC25923, read-out: S. aureus ATCC 25923 MIC
E. faecium ATCC 700221 = experiment: MIC, E. faecium ATCC 700221; assay type: cell-based; conditions: Enterococcus faecium, ATCC700221; Table XIV A. Gram-positive bacteria; read-out: E. faecium ATCC 700221 MIC
M. phlei ATCC 11758 = experiment: MIC, M. phlei ATCC 11758; assay type: cell-based; conditions: Mycolicibacterium phlei, ATCC11758; Table XIV A. Gram-positive bacteria
[3] = test system: S. aureus USA300 MRSA BAA-1717; experiment: MIC, S. aureus USA300 MRSA BAA-1717; assay type: cell-based; conditions: Staphylococcus aureus; Table XIV A. Gram-positive bacteria; read-out: S. aureus USA300 MRSA BAA-1717 MIC
S. pneumoniae ATCC 49619 = experiment: MIC, S. pneumoniae ATCC 49619; assay type: cell-based; conditions: Streptococcus pneumoniae, ATCC49619; Table XIV A. Gram-positive bacteria
[4] = test system: Pseudomonas aeruginosa (ATCC27853); experiment: MIC, broth microdilution (CLSI), Pseudomonas aeruginosa; assay type: cell-based; conditions: ATCC27853, Table XIV B. Gram-negative bacteria, read-out: P. aeruginosa ATCC 27853 MIC
[5] = test system: N. gonorrhoeae ATCC 700825; experiment: MIC, N. gonorrhoeae ATCC 700825; assay type: cell-based; conditions: Neisseria gonorrhoeae, ATCC700825; Table XIV B. Gram-negative bacteria
K. pneumoniae ATCC 43816 = experiment: MIC, K. pneumoniae ATCC 43816; assay type: cell-based; conditions: Klebsiella pneumoniae, ATCC43816; Table XIV B. Gram-negative bacteria
[6] = test system: E. coli JW5503 (efflux defective); experiment: MIC, E. coli JW5503 (efflux defective); assay type: cell-based; conditions: Escherichia coli, read-out: E. coli JW5503 (efflux defective) MIC
[7] = test system: E. coli RNase P RNA, M1 RNA; experiment: Inhibition of bacterial RNase P activity, IC50 determination (cleavage of pATSerUG by M1 RNA); assay type: biochemical; conditions: NI: No inhibition
[8] = test system: Staphylococcus aureus subsp. aureus (ATCC29213); experiment: MIC, broth microdilution (CLSI), Staphylococcus aureus ATCC29213; assay type: cell-based; conditions: Staphylococcus aureus, read-out: S. aureus ATCC 29213 MIC
[9] = test system: P. aeruginosa NTUH974 (MDR); experiment: MIC, P. aeruginosa NTUH974 (MDR); assay type: cell-based; conditions: Pseudomonas aeruginosa; Table XIV B. Gram-negative bacteria; read-out: P. aeruginosa NTUH974 (MDR) MIC
M. fortuitum ATCC 110 = experiment: MIC, M. fortuitum ATCC 110; assay type: cell-based; conditions: Mycolicibacterium fortuitum, ATCC110; Table XIV A. Gram-positive bacteria
[10] = test system: Enterococcus faecalis (ATCC29212); experiment: MIC, broth microdilution (CLSI), Enterococcus faecalis; assay type: cell-based; conditions: ATCC29212, Table XIV A. Gram-positive bacteria, read-out: E. faecalis ATCC 29212 MIC
H. influenzae ATCC 49247 = experiment: MIC, H. influenzae ATCC 49247; assay type: cell-based; conditions: Haemophilus influenzae, ATCC49247; Table XIV B. Gram-negative bacteria
[11] = test system: Escherichia coli (ATCC25922); experiment: MIC, broth microdilution (CLSI), Escherichia coli; conditions: Escherichia coli
[12] = test system: S. aureus MRSA ATCC 33591; experiment: MIC, S. aureus MRSA ATCC 33591; assay type: cell-based; conditions: Staphylococcus aureus; Table XIV A. Gram-positive bacteria; read-out: S. aureus MRSA ATCC 33591 MIC
A. baumannii ATCC 17978 = experiment: MIC, A. baumannii ATCC 17978; assay type: cell-based; conditions: Acinetobacter baumannii, ATCC17978; Table XIV B. Gram-negative bacteria
[13] = ATCC29213, Table XIV A. Gram-positive bacteria
[14] = ATCC25922, read-out: E. coli ATCC 25922 MIC, Table XIII
[15] = ATCC25922, read-out: E. coli ATCC 25922 MIC, Table XIV B. Gram-negative bacteria

Cl.Clc1ccc(CNCCc2c[nH]c3ccccc23)c(Cl)n1 [Compound 8, N-((2,6-dichloropyridin-3-yl)methyl)-2-(1H-indol-3-yl)ethan-1-amine hydrochloride salt]
Initial screening of RNase P Inhibition [1]: 0.96

Cc1cccc(C(CCNC2CCC(N)CC2)c2cn(CC3CCCCCC3)c3ccccc23)c1 [Compound 245, (1S,4S)-N1-(3-(1-(cycloheptylmethyl)-1H-indol-3-yl)-3-(m-tolyl)propyl)cyclohexane-1,4-diamine hydrochloride salt]
MIC [2]: 1 µg/mL
MIC (E. faecium ATCC 700221): 2 µg/mL
MIC (M. phlei ATCC 11758): 2 µg/mL
MIC [3]: 2 µg/mL
MIC (S. pneumoniae ATCC 49619): 8 µg/mL
MIC [4]: 16 µg/mL
MIC [5]: 2 µg/mL
MIC (K. pneumoniae ATCC 43816): 8 µg/mL
MIC [6]: 4 µg/mL
IC50 [7]: 13 µM
MIC ([8]; ATCC29213, Table XIII): 4 µg/mL
MIC [8, 13]: 4 µg/mL
MIC [9]: 16 µg/mL
MIC (M. fortuitum ATCC 110): 2 µg/mL
MIC [10]: 4 µg/mL
MIC (H. influenzae ATCC 49247): 8 µg/mL
MIC [11, 14]: 4 µg/mL
MIC [11, 15]: 4 µg/mL
MIC [12]: 4 µg/mL
MIC (A. baumannii ATCC 17978): 4 µg/mL

CCn1cc(C(CC(=O)NCCC2CCNCC2)c2cccc(C)c2)c2ccccc21.Cl (stereo not shown) [Compound 84, 3-(1-ethyl-1H-indol-3-yl)-N-(2-(piperidin-4-yl)ethyl)-3-(m-tolyl)propanamide hydrochloride salt]
Initial screening of RNase P Inhibition [1]: 0.32
IC50 [7]: 823 µM

NC1CCC(NCCC(c2cccc(OC(F)(F)F)c2)c2cn(CC3CCCCC3)c3ccccc23)CC1 [Compound 173, (1S,4S)-N1-(3-(1-(cyclohexylmethyl)-1H-indol-3-yl)-3-(3-(trifluoromethoxy)phenyl)propyl)cyclohexane-1,4-diamine hydrochloride salt]
MIC [2]: 2 µg/mL
MIC (E. faecium ATCC 700221): 2 µg/mL
MIC (M. phlei ATCC 11758): 1 µg/mL
MIC [3]: 2 µg/mL
MIC (S. pneumoniae ATCC 49619): 8 µg/mL
MIC [4]: 16 µg/mL
MIC [5]: 2 µg/mL
MIC (K. pneumoniae ATCC 43816): 4 µg/mL
MIC [6]: 4 µg/mL
IC50 [7]: 3 µM
MIC ([8]; ATCC29213, Table XIII): 2 µg/mL
MIC [8, 13]: 2 µg/mL
MIC [9]: 16 µg/mL
MIC (M. fortuitum ATCC 110): 2 µg/mL
MIC [10]: 2 µg/mL
MIC (H. influenzae ATCC 49247): 4 µg/mL
MIC [11, 14]: 4 µg/mL
MIC [11, 15]: 4 µg/mL
MIC [12]: 2 µg/mL
MIC (A. baumannii ATCC 17978): 4 µg/mL

Brc1cccc(CNCCc2c[nH]c3ccccc23)n1.Cl [Compound 12, N-((6-bromopyridin-2-yl)methyl)-2-(1H-indol-3-yl)ethan-1-amine hydrochloride salt]
Initial screening of RNase P Inhibition [1]: 0.84

Cc1cccc(C(CCNC2CCNCC2)c2cn(CC3CCCCC3)c3ccccc23)c1.Cl (stereo not shown) [Compound 122, N-(3-(1-(cyclohexylmethyl)-1H-indol-3-yl)-3-(m-tolyl)propyl)piperidin-4-amine hydrochloride salt]
MIC [2]: 2 µg/mL
MIC (E. faecium ATCC 700221): 2 µg/mL
MIC (M. phlei ATCC 11758): 2 µg/mL
MIC (S. pneumoniae ATCC 49619): 8 µg/mL
MIC [4]: 16 µg/mL
MIC [5]: 2 µg/mL
MIC (K. pneumoniae ATCC 43816): 4 µg/mL
MIC [6]: 4 µg/mL
IC50 [7]: 4 µM
MIC ([8]; ATCC29213, Table XIII): 8 µg/mL
MIC [8, 13]: 4 µg/mL
MIC [9]: 16 µg/mL
MIC (M. fortuitum ATCC 110): 2 µg/mL
MIC [10]: 4 µg/mL
MIC (H. influenzae ATCC 49247): 4 µg/mL
MIC [11, 14]: 4 µg/mL
MIC [11, 15]: 4 µg/mL
MIC [12]: 4 µg/mL
MIC (A. baumannii ATCC 17978): 8 µg/mL

Cc1cccc(C(CC(=O)NCCC2CCNCC2)c2cn(Cc3ccccc3)c3ccccc23)c1.Cl (stereo not shown) [Compound 87, 3-(1-benzyl-1H-indol-3-yl)-N-(2-(piperidin-4-yl)ethyl)-3-(m-tolyl) propanamide hydrochloride salt]
Initial screening of RNase P Inhibition ([1]; hydrochloride salt): 0.30
IC50 ([7]; hydrochloride salt): 154 µM

Cc1cccc(C(CC(=O)NCCC2CCNCC2)c2cn(Cc3ccccc3)c3ccccc23)c1.Cl (stereo not shown) [Compound 86, 3-(1-benzyl-1H-indol-3-yl)-N-(2-(piperidin-4-yl)ethyl)-3-(m-tolyl)propanamide hydrochloride salt]
Initial screening of RNase P Inhibition ([1]; hydrochloride salt): 0.78
IC50 ([7]; hydrochloride salt): 242 µM

Brc1cccc(CNCCc2c[nH]c3ccccc23)c1.Cl [Compound 13, N-(3-bromobenzyl)-2-(1H-indol-3-yl)ethan-1-amine hydrochloride salt]
Initial screening of RNase P Inhibition [1]: 0.97

Cc1ccc(CN(CCc2c[nH]c3ccccc23)C(=O)CNCc2ccc(F)cc2)cc1.Cl [Compound 15, N-(2-(1H-indol-3-yl)ethyl)-2-((4-fluorobenzyl)amino)-N-(4-methylbenzyl)acetamide hydrochloride salt]
Initial screening of RNase P Inhibition [1]: 1.10

Cl.c1ccc2c(CCNCc3cncs3)c[nH]c2c1 [Compound 16, 2-(1H-indol-3-yl)-N-(thiazol-5-ylmethyl) ethan-1-amine hydrochloride salt]
Initial screening of RNase P Inhibition [1]: 0.88

Cl.c1c[nH]c(CNCCc2c[nH]c3ccccc23)c1 [Compound 14, N-((1H-pyrrol-2-yl)methyl)-2-(1H-indol-3-yl)ethan-1-amine hydrochloride salt]
Initial screening of RNase P Inhibition [1]: 0.78

Cl.c1ccc2c(CCNCc3c[nH]cn3)c[nH]c2c1 [Compound 9, N-((1H-imidazol-4-yl)methyl)-2-(1H-indol-3-yl)ethan-1-amine hydrochloride salt]
Initial screening of RNase P Inhibition [1]: 0.91

Cc1cccc(C(CC(=O)NCCC2CCNCC2)c2cn(Cc3ccccc3)c3cccnc23)c1.Cl (stereo not shown) [Compound 85, 3-(1-benzyl-1H-pyrrolo[3,2-b]pyridin-3-yl)-N-(2-(piperidin-4-yl)ethyl)-3-(m-tolyl)propanamide hydrochloride salt]
Initial screening of RNase P Inhibition [1]: 0.20
IC50 [7]: 806 µM

c1ccc2c(CCNCC3CCNCC3)c[nH]c2c1 [Compound 18, 2-(1H-indol-3-yl)-N-(piperidin-4-ylmethyl)ethan-1-amine hydrochloride salt]
Initial screening of RNase P Inhibition [1]: 1.05

Cl.Fc1ccc(CN(CCc2c[nH]c3ccccc23)Cc2ncc[nH]2)cc1 [Compound 10, N-((1H-imidazol-2-yl)methyl)-N-(4-fluorobenzyl)-2-(1H-indol-3-yl)ethan-1-amine hydrochloride salt]
Initial screening of RNase P Inhibition [1]: 0.95

Cl.c1cc(CNCCc2c[nH]c3ccccc23)nc(N2CCCCC2)c1 [Compound 17, 2-(1H-indol-3-yl)-N-((6-(piperidin-1-yl)pyridin-2-yl)methyl)ethan-1-amine hydrochloride salt]
Initial screening of RNase P Inhibition [1]: 0.94

COc1ccc(CNCCc2c[nH]c3ccccc23)cc1.Cl [Compound 11, 2-(1H-indol-3-yl)-N-(4-methoxybenzyl)ethan-1-amine hydrochloride salt]
Initial screening of RNase P Inhibition [1]: 0.72

Cc1cccc(C(CC(=O)NCCC2CCNCC2)c2cn(CC3CCCCC3)c3ccc(Br)cc23)c1.Cl (stereo not shown) [Compound 120, 3-(5-bromo-1-(cyclohexylmethyl)-1H-indol-3-yl)-N-(2-(piperidin-4-yl)ethyl)-3-(m-tolyl)propanamide hydrochloride salt]
MIC [2]: 2 µg/mL
MIC (E. faecium ATCC 700221): 4 µg/mL
MIC (S. pneumoniae ATCC 49619): 16 µg/mL
MIC [4]: 64 µg/mL
MIC [5]: 2 µg/mL
MIC (K. pneumoniae ATCC 43816): 64 µg/mL
MIC [6]: 16 µg/mL
IC50 [7]: 11 µM
MIC [8, 13]: 2 µg/mL
MIC [9]: 64 µg/mL
MIC [10]: 4 µg/mL
MIC (H. influenzae ATCC 49247): 16 µg/mL
MIC [11, 14]: > 512 µg/mL
MIC [11, 15]: 32 µg/mL
MIC [12]: 32 µg/mL
MIC (A. baumannii ATCC 17978): 64 µg/mL
